We go through 15 compounds from US20240400564A1 (Syndax Pharmaceuticals, Inc, priority 2021, published 2024).

pIC50: −log10 of the molar value. Read-outs that look alike come from different tables or passages of the source.

In series [1] the target is T1, human Menin and N-terminal portion of human MLL (amino acids 4-43) (Homo sapiens, UniProt O00255).
T1 construct: H-FL-Menin diluted to 4 nM in assay buffer
T1 sequence (O00255 1-610): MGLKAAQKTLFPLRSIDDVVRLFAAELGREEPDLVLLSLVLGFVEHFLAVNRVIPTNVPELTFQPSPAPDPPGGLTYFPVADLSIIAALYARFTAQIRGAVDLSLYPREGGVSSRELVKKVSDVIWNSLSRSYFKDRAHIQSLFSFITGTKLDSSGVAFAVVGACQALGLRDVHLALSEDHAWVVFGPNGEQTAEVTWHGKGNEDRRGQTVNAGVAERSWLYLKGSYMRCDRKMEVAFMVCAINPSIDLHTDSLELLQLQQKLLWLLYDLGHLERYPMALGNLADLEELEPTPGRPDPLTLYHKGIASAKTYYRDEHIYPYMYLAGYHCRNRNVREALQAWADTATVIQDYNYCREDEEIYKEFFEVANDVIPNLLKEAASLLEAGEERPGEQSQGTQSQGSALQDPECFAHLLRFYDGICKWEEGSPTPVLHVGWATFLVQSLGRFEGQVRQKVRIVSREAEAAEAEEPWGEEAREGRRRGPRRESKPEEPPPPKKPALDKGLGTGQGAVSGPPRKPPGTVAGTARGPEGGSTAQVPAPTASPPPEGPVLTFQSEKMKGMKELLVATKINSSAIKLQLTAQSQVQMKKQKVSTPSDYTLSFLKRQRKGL
Briefly: Menin-MLL competition assay (HTRF). In kind it is binding. To be noted: 1 hr incubation. The text has this: Menin-MLL is a competition assay between human Menin and N-terminal portion of human MLL representing amino acids 4-43 of the protein. The interaction between Menin and MLL peptide was monitored by HTRF employing Terbium labeled anti-His6 antibody directed to the N-terminal His6-tag on recombinant Menin and FITC group covalently attached to the MLL peptide. The N-terminal fragment of MLL, retained in all MLL fusion proteins, is involved in the interactions with Menin, and this protein-protein interaction is critical for the MLL fusion proteins mediated leukemogenic transformations.
For IC50 determination test compounds were prepared as 10 mM DMSO stock solutions. Considering DMSO as the vehicle in the assay system. Lower sub-stocks of 50 μM were prepared from the 10 mM stock solution. To test the compounds in assay, 3.16-fold serial dilutions are made in 100% DMSO. Mid-stock of 50×compounds (50 μM) were serially diluted (3.16 fold) in 100% DMSO in Polypropylene plate. In assay plate 1 micro-litre of the previously prepared compound dilution was stamped. H-FL-Menin diluted to 4 nM in assay buffer (50 mM Tris-HCl, pH 7.4, 50 mM NaCl, freshly prepared 1 mM DTT, 0.01% BSA, 0.005% Triton X-100) was pre-incubated with 8 nM anti-His6-Tb for 30 min at room temperature. FITC-MLL-4-43 was diluted to 2 nM in assay buffer and 25 μL was dispensed into each well of the assay plate followed by addition of 25 μl of pre-incubated H-FL-Menin and anti-His6-Tb mixture. Final concentration H-FL-Menin diluted to 1 nM in assay plate with 2 nM anti-His6-Tb and 1 nM FITC-MLL-4-43. After 1 hr incubation at room temperature, the HTRF signal was measured on the Spark multi-label plate reader. Resulting data were captured as a ratio of RFU520/RFU485×1000. The max values were obtained from 0% inhibition in presence of 2% DMSO and the min. values were 100% inhibition in presence of 1 μM reference compound.

Another series addresses hERG (Homo sapiens, UniProt Q12809). Briefly: Patch clamp assay (hERG tail currents, whole-cell). The note with it: 30 μM compound.
For series [2], the system named is MLLr leukemia cell line MV4-11. Briefly: Cell proliferation assay MV4;11 (CellTiter-Glo, 72 hours). The note with it: Homo sapiens, read-out: MV4; for pIC50: MV4-11 cells, 72 hours, CellTiter-Glo, 11 IC50. In kind it is cell-based. Summed up: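 Cells in IMDM/10% FBS, seeded from a 15,000 cells/ml suspension, were exposed for 72 h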

hERG, sequence (Q12809 whole entry): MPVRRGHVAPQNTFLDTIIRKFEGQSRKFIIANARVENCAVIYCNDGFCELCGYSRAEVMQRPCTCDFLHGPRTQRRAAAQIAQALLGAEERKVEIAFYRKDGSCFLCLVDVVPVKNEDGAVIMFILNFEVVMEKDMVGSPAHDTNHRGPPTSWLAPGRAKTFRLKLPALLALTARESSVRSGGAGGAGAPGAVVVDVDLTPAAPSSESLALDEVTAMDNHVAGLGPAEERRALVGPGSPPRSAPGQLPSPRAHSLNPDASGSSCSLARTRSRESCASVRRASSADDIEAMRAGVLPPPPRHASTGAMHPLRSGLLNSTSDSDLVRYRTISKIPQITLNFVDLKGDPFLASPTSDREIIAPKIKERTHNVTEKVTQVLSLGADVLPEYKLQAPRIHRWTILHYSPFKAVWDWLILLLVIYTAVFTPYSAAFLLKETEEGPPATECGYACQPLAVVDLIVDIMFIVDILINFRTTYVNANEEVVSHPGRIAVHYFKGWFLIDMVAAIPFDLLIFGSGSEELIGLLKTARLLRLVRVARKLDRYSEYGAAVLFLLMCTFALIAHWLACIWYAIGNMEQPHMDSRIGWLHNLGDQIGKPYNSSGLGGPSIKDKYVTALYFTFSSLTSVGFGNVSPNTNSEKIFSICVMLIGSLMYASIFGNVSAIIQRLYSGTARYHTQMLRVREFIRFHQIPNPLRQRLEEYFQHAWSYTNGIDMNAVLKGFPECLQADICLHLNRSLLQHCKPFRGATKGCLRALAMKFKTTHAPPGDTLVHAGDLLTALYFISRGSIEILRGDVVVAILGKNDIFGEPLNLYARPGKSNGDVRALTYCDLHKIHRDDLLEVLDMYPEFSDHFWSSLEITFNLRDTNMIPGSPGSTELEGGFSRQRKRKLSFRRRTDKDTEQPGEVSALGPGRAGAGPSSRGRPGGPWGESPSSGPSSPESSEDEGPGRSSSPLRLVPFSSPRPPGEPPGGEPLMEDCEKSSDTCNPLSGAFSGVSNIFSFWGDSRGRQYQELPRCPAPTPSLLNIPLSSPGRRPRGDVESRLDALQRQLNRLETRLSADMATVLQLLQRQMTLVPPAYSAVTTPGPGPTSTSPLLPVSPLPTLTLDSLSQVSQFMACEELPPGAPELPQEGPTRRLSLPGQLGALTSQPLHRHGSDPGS

`CCN(C(=O)c1cc(F)ccc1Oc1cncnc1N1CC2(CCN(C[C@@H]3CC[C@@H](NS(=O)(=O)C(C)C)CO3)CC2)C1)C(C)C` [Example 3, N-Ethyl-5-fluoro-N-isopropyl-2-((4-(7-(((2S,5R)-5-((1-methylethyl)sulfonamido)tetrahydro-2H-pyran-2-yl)methyl)-2,7-diazaspiro[3.5]nonan-2-yl)pyrimidin-5-yl)oxy)benzamide] had a pIC50 in series [1] above 7.00.
Turning to `CCN(C(=O)c1cc(F)ccc1Oc1cncnc1N1CC2(CCN(C[C@@H]3CC[C@@H](NS(=O)(=O)C4COC4)CO3)CC2)C1)C(C)C` [Example 5, N-Ethyl-5-fluoro-N-isopropyl-2-((4-(7-(((2S,5R)-5-(oxetane-3-sulfonamido)tetrahydro-2H-pyran-2-yl)methyl)-2,7-diazaspiro[3.5]nonan-2-yl)pyrimidin-5-yl)oxy)benzamide], the pIC50 in series [1] is above 7.00.
As to `CCN(C(=O)c1cc(F)ccc1Oc1cncnc1N1CC2(CCN(C[C@@H]3CC[C@@H](NS(=O)(=O)CC4CC4)CO3)CC2)C1)C(C)C` [Example 7, 2-((4-(7-(((2S,5R)-5-((Cyclopropylmethyl)sulfonamido)tetrahydro-2H-pyran-2-yl)methyl)-2,7-diazaspiro[3.5]nonan-2-yl)pyrimidin-5-yl)oxy)-N-ethyl-5-fluoro-N-isopropylbenzamide], the pIC50 in series [1] is above 7.00.
On to `CCN(C(=O)c1cc(F)ccc1Oc1cncnc1N1CC2(CCN(C[C@@H]3CC[C@@H](NS(=O)(=O)CCOC)CO3)CC2)C1)C(C)C` [Example 8, N-Ethyl-5-fluoro-N-isopropyl-2-((4-(7-(((2S,5R)-5-((2-methoxyethyl)sulfonamido)tetrahydro-2H-pyran-2-yl)methyl)-2,7-diazaspiro[3.5]nonan-2-yl)pyrimidin-5-yl)oxy)benzamide], for which, in series [1], the pIC50 was above 7.00.
The same measure, in the same setting: the same measure for `CCCS(=O)(=O)N[C@@H]1CC[C@@H](CN2CCC3(CC2)CN(c2ncncc2Oc2ccc(F)cc2C(=O)N(CC)C(C)C)C3)OC1` [Example 9, N-Ethyl-5-fluoro-N-isopropyl-2-((4-(7-(((2S,5R)-5-(propylsulfonamido)tetrahydro-2H-pyran-2-yl)methyl)-2,7-diazaspiro[3.5]nonan-2-yl)pyrimidin-5-yl)oxy)benzamide]: above 7.00; for `CC(C)N(C(=O)c1cc(F)ccc1Oc1cncnc1N1CC2(CCN(C[C@@H]3CC[C@@H](NC(=O)OC(C)(C)C)CO3)CC2)C1)C1CC1` [Example 17, tert-Butyl ((3R,6S)-6-((2-(5-(2-(cyclopropyl(isopropyl)carbamoyl)-4-fluorophenoxy)pyrimidin-4-yl)-2,7-diazaspiro[3.5]nonan-7-yl)methyl)tetrahydro-2H-pyran-3-yl)carbamate]: above 7.00.
As for `CC(C)N(C(=O)c1cc(F)ccc1Oc1cncnc1N1CC2(CCN(C[C@@H]3CC[C@@H](NS(=O)(=O)C(C)C)CO3)CC2)C1)C1CC1` [Example 20, N-Cyclopropyl-5-fluoro-N-isopropyl-2-((4-(7-(((2S,5R)-5-((1-methylethyl)sulfonamido)tetrahydro-2H-pyran-2-yl)methyl)-2,7-diazaspiro[3.5]nonan-2-yl)pyrimidin-5-yl)oxy)benzamide], the pIC50 in series [1] was above 7.00.
The same measure, in the same setting: in the case of `CC(C)N(C(=O)c1cc(F)ccc1Oc1cncnc1N1CC2(CCN(C[C@@H]3CC[C@@H](NS(=O)(=O)C4COC4)CO3)CC2)C1)C1CC1` [Example 22, N-Cyclopropyl-5-fluoro-N-isopropyl-2-((4-(7-(((2S,5R)-5-(oxetane-3-sulfonamido)tetrahydro-2H-pyran-2-yl)methyl)-2,7-diazaspiro[3.5]nonan-2-yl)pyrimidin-5-yl)oxy)benzamide] it was above 7.00; in that of `C[C@@H]1COC[C@H](C)N1C(=O)c1cc(F)ccc1Oc1cncnc1N1CC2(CCN(C[C@@H]3CC[C@@H](NS(C)(=O)=O)CO3)CC2)C1` [Example 23, N-((3R,6S)-6-((2-(5-(2-((3S,5R)-3,5-Dimethylmorpholine-4-carbonyl)-4-fluorophenoxy)pyrimidin-4-yl)-2,7-diazaspiro[3.5]nonan-7-yl)methyl)tetrahydro-2H-pyran-3-yl)methanesulfonamide], above 7.00.
In the case of `CO[C@@H]1CCN(S(=O)(=O)N[C@@H]2CC[C@@H](CN3CCC4(CC3)CN(c3ncncc3Oc3ccc(F)cc3C(=O)N(C(C)C)C(C)C)C4)OC2)C1` [Example 211, 5-Fluoro-N,N-diisopropyl-2-((4-(7-(((2S,5R)-5-(((R)-3-methoxypyrrolidine)-1-sulfonamido)tetrahydro-2H-pyran-2-yl)methyl)-2,7-diazaspiro[3.5]nonan-2-yl)pyrimidin-5-yl)oxy)benzamide], the “hERG % Remaining” value at hERG is reported as “+++ (≥66%)”. In addition, in series [2], the pIC50 is above 7.00.
For `CCN(C(=O)c1cc(F)ccc1Oc1cncnc1N1CC2(CCN(C[C@@H]3CC[C@@H](NS(=O)(=O)c4ccc(=O)[nH]c4C)CO3)CC2)C1)C(C)C` [Example 217, N-Ethyl-5-fluoro-N-isopropyl-2-((4-(7-(((2S,5R)-5-((2-methyl-6-oxo-1,6-dihydropyridine)-3-sulfonamido)tetrahydro-2H-pyran-2-yl)methyl)-2,7-diazaspiro[3.5]nonan-2-yl)pyrimidin-5-yl)oxy)benzamide], in that order: “+++ (≥66%)” and above 7.00.
Turning to `CCN(C(=O)c1cc(F)ccc1Oc1cncnc1N1CC2(CCN(C[C@@H]3CC[C@@H](NS(=O)(=O)c4c[nH]c(=O)c(C)c4)CO3)CC2)C1)C(C)C` [Example 218, N-Ethyl-5-fluoro-N-isopropyl-2-((4-(7-(((2S,5R)-5-((5-methyl-6-oxo-1,6-dihydropyridine)-3-sulfonamido)tetrahydro-2H-pyran-2-yl)methyl)-2,7-diazaspiro[3.5]nonan-2-yl)pyrimidin-5-yl)oxy)benzamide], the “hERG % Remaining” value on hERG was “+ (<33%)”. The pIC50 in series [2] is above 7.00.
For `CC(C)N(C(=O)c1cc(F)ccc1Oc1cncnc1N1CC2(CCN(C[C@@H]3CC[C@@H](NS(=O)(=O)N4CC5COCC5C4)CO3)CC2)C1)C(C)C` (stereo partly drawn) [Example 224, 5-Fluoro-2-((4-(7-(((2S,5R)-5-((hexahydro-1H-furo[3,4-c]pyrrole)-5-sulfonamido)tetrahydro-2H-pyran-2-yl)methyl)-2,7-diazaspiro[3.5]nonan-2-yl)pyrimidin-5-yl)oxy)-N,N-diisopropylbenzamide] the same measures were “+++ (≥66%)” and above 7.00.
Consider `CCS(=O)(=NC)N[C@@H]1CC[C@@H](CN2CCC3(CC2)CN(c2ncncc2Oc2ccc(F)cc2C(=O)N(C(C)C)C(C)C)C3)OC1` (stereo partly drawn) [Example 231, 5-Fluoro-N,N-diisopropyl-2-((4-(7-(((2S,5R)-5-(N′-methylethylsulfonoamidimidamido)tetrahydro-2H-pyran-2-yl)methyl)-2,7-diazaspiro[3.5]nonan-2-yl)pyrimidin-5-yl)oxy)benzamide], for which the “hERG % Remaining” value on hERG is on record as “+++ (≥66%)”. The IC50 in series [2] (MV4-11, 72 h, 11 IC50 (nM)) was below 100 nM.
Regarding `CC(C)N(CC(F)F)C(=O)c1cc(F)ccc1Oc1cncnc1N1CC2(CCN(C[C@@H]3CC[C@@H](NS(=O)(=O)c4nn(C)cc4F)CO3)CC2)C1` [Example 241, N-(2,2-Difluoroethyl)-5-fluoro-2-((4-(7-(((2S,5R)-5-((4-fluoro-1-methyl-1H-pyrazole)-3-sulfonamido)tetrahydro-2H-pyran-2-yl)methyl)-2,7-diazaspiro[3.5]nonan-2-yl)pyrimidin-5-yl)oxy)-N-isopropylbenzamide], the “hERG % Remaining” value on hERG is “++ (233% and ≤66%)”. Also, the pIC50 in series [2] is above 7.00.
